Data taken from patent publication US20090264421A1 (priority 2007, published 2009).

Legend:
[1] = system: RPMI 8226 myeloma xenografts; experiment: RPMI 8226 SCID mouse flank xenograft model; assay type: in vivo; conditions: 0.25 mg/kg intraperitoneally twice weekly, three weeks of treatment of established tumors, p<0.05
Description: FIG. 4. Patient myeloma cells treated in mixed culture are selectively killed by chaetocin in comparison to other bone marrow leukocytes, and chaetocin has in vivo anti-myeloma activity. A-C. Unsorted bone marrow leukocytes obtained from 4 patients with multiple myeloma were treated with 100 nM Chaetocin or diluent for 24 hours and then subjected to FACS analyses to examine induced cell death in various leukocyte subpopulations. […] Results from 4 unsorted patient marrow leukocyte samples are indicated in C, indicating selective killing of myeloma cells by chaetocin in mixed culture in all 4 examined patient samples. In A-C, surviving cells were defined as those with low annexin and 7-AAD staining. D. Chaetocin has in vivo anti-myeloma activity in the RRMI 8226 SCID flank xenograft mouse model. […]
In vivo experiments: The in vivo effects of chaetocin were preliminarily explored at Southern Research Institute with assistance from Dr. William Waud (Birmingham, Ala.) in SCID mice using subcutaneously flank-implanted RPMI 8226 myeloma xenografts using a twice-weekly intraperitoneal administration schedule, with chaetocin formulated in 25% DMSO and 75% PEG400. Tumor weights were calculated from volumes derived from direct tumor measurements. […]

A549 cells = assay type: cell-based, human; conditions: within 1-2 minutes
Text: Measurement of intra- and extracellular chaetocin levels: Tumor cells treated with indicated chaetocin concentrations were washed twice with ice cold PBS, immediately solubilized in 0.5 M perchloric acid, and evaluated “real time” via HPLC using Beckman System Gold Nouveau Software with a dual pump 125 gradient pump system, 507e autosampler, 168 diode array detector, and Beckman Ultrasphere ODS column (4.6 mm×[…]×7 μm) using the following elution profile: 100% water to 100% methanol linear gradient over 40 minutes, followed by a 10 minute period of elution with 100% methanol. Quantitation was accomplished using a standard curve of peak areas derived from analogous HPLC data using varying concentrations of chaetocin.

thioredoxin = target: T1, thioredoxin (Escherichia coli, UniProt P0AA25); experiment: Thioredoxin activity assay (insulin precipitation); assay type: biochemical, E. coli; conditions: higher chaetocin concentrations; read-out: IC50, Trx activity inhibition
T1 construct: purchased Promega (Madison, Wis.)
Description: (§1) HeLa cells were obtained from ATCC.
Thioredoxin Activity Assay: The 100 μL reaction contained 100 mM potassium phosphate (pH 7.0), 2 mM EDTA, 0.13 mM bovine insulin, 3.9 μM E. coli thioredoxin and chaetocin as indicated. The reaction was initiated by addition of 0.33 mM DTT, and turbidity was monitored at 620 nm in a plate reader. The initial linear rate was calculated based on the slope of the line after an increase in absorbance (indicating precipitation of insulin) started to occur.

TrxR1 [2] = target: T2, TrxR1 (Rattus norvegicus, UniProt O89049); experiment: Thioredoxin reductase activity assay (DTNB method); assay type: biochemical; set-up: rat liver thioredoxin reductase; purchased Sigma (St. Louis, Mo.); conditions: cell-free; read-out: IC50, TrxR1-initiated turnover of DTNB
T2 sequence (O89049 1-499): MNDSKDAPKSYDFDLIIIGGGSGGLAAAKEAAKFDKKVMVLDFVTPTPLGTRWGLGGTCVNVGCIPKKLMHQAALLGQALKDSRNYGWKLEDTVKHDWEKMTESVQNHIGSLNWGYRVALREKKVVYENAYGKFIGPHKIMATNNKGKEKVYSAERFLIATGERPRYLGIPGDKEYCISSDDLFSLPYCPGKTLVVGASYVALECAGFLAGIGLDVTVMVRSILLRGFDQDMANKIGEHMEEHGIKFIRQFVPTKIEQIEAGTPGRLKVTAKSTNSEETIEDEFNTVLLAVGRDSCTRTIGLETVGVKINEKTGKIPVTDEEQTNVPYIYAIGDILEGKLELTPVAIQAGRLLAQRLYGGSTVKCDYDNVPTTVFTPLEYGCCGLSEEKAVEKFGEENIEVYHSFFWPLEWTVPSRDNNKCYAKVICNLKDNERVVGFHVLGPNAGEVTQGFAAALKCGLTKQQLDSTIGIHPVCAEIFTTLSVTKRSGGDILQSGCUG
Description: as §1
Final concentrations were 0.0005 U/μL of enzyme and 0.24 mM NADPH in the presence of chaetocin as indicated in a 100 μL reaction. The reaction was started by the addition of DTNB (3 mM) and the change in absorbance at 405 nm was monitored in a plate reader. Activity was calculated as the increase in absorbance between 2 and 5 min after DTNB addition.

TrxR1 [3] = target: T2, TrxR1; assay type: biochemical; set-up: rat liver thioredoxin reductase; purchased Sigma (St. Louis, Mo.); conditions: mass spectroscopy; data not shown
Description: Samples were allowed to react at 22° C. for 15 min and then processed for analysis by desalting and fractionating using C18 ZipTips (Millipore Corporation, Bedford, Mass.). For the DTT/chaetocin reaction, the reaction proceeded for 20 min and was then spun down to remove precipitated insulin before loading onto ZipTips. ZipTips were conditioned with 60% acetonitrile:39% water:1% acetic acid and equilibrated with 1% acetic acid. Samples were acidified with glacial acetic acid and loaded onto an equilibrated ZipTip and washed with 1% acetic acid. Fractions were step-eluted off the ZipTip using 10 μl of 1% acetic acid in water containing 20, 30, 40, or 60% acetonitrile. Collected fractions were injected by loop injection (2 μl) directly into the mass spectrometer using a mobile phase of 30% acetonitrile:69% water:1% acetic acid at 5 μl/min. Mass spectra were collected on an Agilent Technologies LC/MSD-TOF mass spectrometer in positive electrospray ionization mode over a m/z range of 400 to 1500. The capillary, fragmentor, skimmer, and OCT RF voltages (3500, 185, 60, 200 volts, respectively) were optimized to enhance signal and minimize instrument fragmentation.

T1 sequence (P0AA25 whole entry): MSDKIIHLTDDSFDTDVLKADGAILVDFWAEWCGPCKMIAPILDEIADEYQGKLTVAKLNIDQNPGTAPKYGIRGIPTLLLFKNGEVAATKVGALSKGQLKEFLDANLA

Compound: CN1C(=O)[C@@]23C[C@]4([C@]56C[C@@]78SS[C@@](CO)(C(=O)N7[C@H]5Nc5ccccc56)N(C)C8=O)c5ccccc5N[C@@H]4N2C(=O)[C@]1(CO)SS3 [chaetocin]
- T/C values [1]: 50-60%
- intracellular accumulation relative to applied extracellular concentration (A549 cells): 10 fold
- IC50 (thioredoxin): ~90 µM
- IC50 (TrxR1 [2]): ~4 µM
- covalent adduct with TrxR1 (TrxR1 [3]): no evidence of a covalent chaetocin-TrxR1 adduction
